Assay [1] can be described thus: Antiproliferative activity against human MCF-7TN-R cells assessed as decrease in Ki-67 staining after 48 hrs by immunofluorescence staining. More on the design: scale not given: the % may be the effect or the level left. The format is functional.
For assay [2], the species on record is Homo sapiens. Nature of the assay: Induction of apoptosis in human MCF-7TN-R cells assessed as decrease in viable cells after 48 hrs by DAPI staining method relative to control. The assay is classed as functional, cell-based.
For assay [3], the species on record is Homo sapiens. Nature of the assay: Potentiation of etoposide-induced antiproliferative activity against human MCF-7TN-R cells after 24 hrs by MTT assay. The format is functional, cell-based.
The subject of assay [4] is MDA-MB-468. Nature of the assay: Antiproliferative activity against human MDA-MB-468 cells assessed as decrease in Ki-67 staining after 48 hrs by immunofluorescence staining. The format is functional. Also noted: scale not given: the % may be the effect or the level left.
For assay [5], the system named is MDA-MB-231. The assay can be described thus: Antiproliferative activity against human MDA-MB-231 cells assessed as decrease in Ki-67 staining after 48 hrs by immunofluorescence staining. The format is functional. Also noted: scale not given: the % may be the effect or the level left.
For assay [6], the species on record is Homo sapiens. Nature of the assay: Potentiation of doxorubicin-induced antiproliferative activity against human MCF-7TN-R cells after 24 hrs by MTT assay. The assay is classed as functional, cell-based.

The source made the active and inactive calls. The rule behind the calls is not given here.

Take `CCCCCCCCCCCCCCNC(=O)[C@H](CO)/N=C/c1ccccc1`: the figures for the Activity in assay [1], in assay [4] and in assay [5] were 19.28%, 25.19% and 74.6%, respectively. Further, the outcome in assay [2], in assay [3] and in assay [6] was Active.
In the case of `CCCCCCCCCCCCC/C=C/[C@@H](O)[C@H](CO)NC(=O)CCCCCCC`, the values for the Activity in assay [1], in assay [4] and in assay [5] were 17.19%, 29.08% and 46.6%, respectively. In addition, the outcome in assay [2], in assay [3] and in assay [6] was Active.

The values are drawn from ChEMBL document CHEMBL2010775, “Anti-proliferative effects of the novel ceramide analog (S)-2-(benzylideneamino)-3-hydroxy-N-tetrade-cylpropanamide in chemoresistant cancer” (2012).
